Results published in US20030162777A1, “Novel N-acylated heterocycles” (Recordati S.A., priority 2001, published 2003).
pKi: −log10 of the molar value.

The compounds below were run against T1, human 5HT1A-serotonergic receptor (Homo sapiens, UniProt P08908) (assay: Radioligand binding to recombinant 5-HT1A receptors). Settings: [3H]8-OH-DPAT 1 nM, membranes of HeLa cells with human 5-HT1A receptor; Ki from IC50 by Cheng & Prusoff; read-out: Binding affinity for 5HT1A receptors, Ki.
T1 construct: expressed in transfected cells; host or cells: HeLa (human cell line), stably transfected; cell membranes used
T1 sequence (P08908 1-422): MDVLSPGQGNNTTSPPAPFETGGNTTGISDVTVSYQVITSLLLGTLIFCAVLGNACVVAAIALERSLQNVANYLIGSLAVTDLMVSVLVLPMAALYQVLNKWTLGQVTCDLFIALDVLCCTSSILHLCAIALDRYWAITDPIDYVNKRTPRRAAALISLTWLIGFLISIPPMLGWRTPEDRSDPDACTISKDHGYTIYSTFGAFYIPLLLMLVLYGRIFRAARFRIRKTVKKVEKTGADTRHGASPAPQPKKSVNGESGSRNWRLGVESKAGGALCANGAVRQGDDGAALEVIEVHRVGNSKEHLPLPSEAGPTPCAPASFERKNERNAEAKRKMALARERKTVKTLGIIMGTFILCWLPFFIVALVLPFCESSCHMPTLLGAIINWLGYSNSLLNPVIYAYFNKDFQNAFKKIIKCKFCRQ
How it was run: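 Displacement of 1 nM [3H]8-OH-DPAT (30 min, 30 °C, Tris-HCl pH 7.4 with MgCl2 and pargyline) from recombinant human 5-HT1A in transfected HeLa membranes, stopped by filtration. Specific binding defined against 10 μM 5-HT; IC50 by nonlinear fitting, then Ki by Cheng–Prusoff.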
`O=C(c1ccc(C(F)(F)F)cc1)N1c2ccccc2CCC1CN1CCN(c2cccc3[nH]ccc23)CC1` (stereo not drawn) [Example 68A23, 1-(4-Indolyl)-4-[1-(4-trifluoromethylbenzoyl)-1,2,3,4-tetrahydroquinoline-2-ylmethyl]piperazine] was tested, and the pKi was 7.37. Compound `Cc1oc(S(=O)(=O)N2CCCCC2)cc1C(=O)N1c2ccccc2CCC1CN1CCN(c2cccc3[nH]ccc23)CC1` (stereo not drawn) [Example 68A55, 1-(4-Indolyl)-4-[1-(2-methyl-5-piperidin-1-ylsulfonylfuran-3-carbonyl)-1,2,3,4-tetrahydroquinoline-2-ylmethyl]piperazine] has a pKi of 7.84. `O=C(C1CCCCC1)N1c2ccccc2CCC1CN1CCC(c2ccccc2Cl)CC1` (stereo not drawn) [Example 72A69, 4-(2-Chlorophenyl)-1-(1-cyclohexanecarbonyl-1,2,3,4-tetrahydroquinolin-2-ylmethyl)piperidine] was tested, and the pKi was 8.41. For `O=S(=O)(c1ccccc1)N1c2ccccc2CCC1CN1CCN(c2cccc3[nH]ccc23)CC1` (stereo not drawn) [Example 70A, 1-(4-Indolyl)-1-[1-phenylsulphonyl-1,2,3,4-tetrahydroquinoline-2-ylmethyl]piperazine], the pKi was 8.11. In the case of “1-(2-Furoyl-1,2,3,4-tetrahydroquinoline-2-ylmethyl)-4-(4-indolyl)piperazine [Example 68A13]”, the pKi was 8.28. `N#Cc1ccc(C(=O)N2c3ccccc3CCC2CN2CCN(c3nccc4ccccc34)CC2)cc1` (stereo not drawn) [Example 75A6, 1-[1-(4-Cyanobenzoyl)-1,2,3,4-tetrahydroquinolin-2-ylmethyl]-4-(1-isoquinolinyl)piperazine] showed a pKi of 8.37. `O=C(CCOCc1ccccc1)N1c2ccccc2CCC1CN1CCN(c2ccccc2OCC(F)(F)F)CC1` (stereo not drawn) [Example 8, 1-[1-(3-Benzyloxypropionyl)-1,2,3,4-tetrahydroquinoline-2-ylmethyl]-4-[2-(2,2,2-trifluoroethoxy)phenyl]piperazine] showed a pKi of 7.99. `COc1cc(F)ccc1N1CCN(CC2CCc3cccc(C)c3N2C(=O)C2CCCCC2)CC1` (stereo not drawn) [Example 67, 1-(1-Cyclohexanecarbonyl-8-methyl-1,2,3,4-tetrahydroquinoline-2-ylmethyl)-4-(4-fluoro-2-methoxyphenyl)piperazine] showed a pKi of 7.53. Work on `O=C(C1CCCCC1)N1c2ccccc2CCC1CN1CCN(c2cccc3cc[nH]c23)CC1` (stereo not drawn) [Example 35A26, 1-(1-Cyclohexanecarbonyl-1,2,3,4-tetrahydroquinoline-2-ylmethyl)-4-(7-indolyl)piperazine] yielded a pKi of 8.51. `O=C(C1CCCCC1)N1c2ccccc2CCC1CN1CCN(c2ccc(F)cc2[N+](=O)[O-])CC1` (stereo not drawn) [Example 72A7, 1-(1-Cyclohexanecarbonyl-1,2,3,4-tetrahydroquinolin-2-ylmethyl)-4-(4-fluoro-2-nitrophenyl)piperazine] was tested, and the pKi was 8.34. `O=C(C1CCCCC1)N1c2ccccc2CCC1CN1CCN(c2cc(Cl)ccc2Cl)CC1` (stereo not drawn) [Example 35A19, 1-(1-Cyclohexanecarbonyl-1,2,3,4-tetrahydroquinoline-2-ylmethyl)-4-(2,5-dichlorophenyl)piperazine] showed a pKi of 8.28. Work on `O=C(C1CCCCC1)N1c2ccccc2CCC1CN1CCN(c2cccc(Cl)c2)CC1` (stereo not drawn) [Example 72A23, 1-(3-Chlorophenyl)-4-(1-cyclohexanecarbonyl-1,2,3,4-tetrahydroquinolin-2-ylmethyl)piperazine] yielded a pKi of 7.61. Work on `CC(C)CC(=O)N1c2ccccc2CCC1CN1CCN(c2cccc3[nH]ccc23)CC1` (stereo not drawn) [Example 68A12, 1-(4-Indolyl)-4-[1-(3-methylbutanoyl)-1,2,3,4-tetrahydroquinoline-2-ylmethyl]piperazine] yielded a pKi of 8.59. With `O=C(c1ccc(O)cc1)N1c2ccccc2CCC1CN1CCN(c2cccc3[nH]ccc23)CC1` (stereo not drawn) [Example 68A68, 1-[1-(4-Hydroxybenzoyl)-1,2,3,4-tetrahydroquinoline-2-ylmethyl]-4-(4-indolyl)piperazine] the pKi was 8.12. Work on `O=C(Nc1ccc(F)cc1)N1c2ccccc2CCC1CN1CCN(c2cccc3[nH]ccc23)CC1` (stereo not drawn) [Example 69A2, 1-[1-(4-Fluorophenylaminocarbonyl)-1,2,3,4-tetrahydroquinoline-2-ylmethyl)-4-(4-indolyl)piperazine] yielded a pKi of 7.62.
